Measured values published in US6987092B1, “Indigoid bisindole derivatives” (Faustus Forschungs Cie. Translational Cancer Research GmbH, priority 1999, dated 2006).
Counter-ions that a name gives are not always drawn.

Tests used:
[1] = tested on: cells of the mammary carcinoma cell line MCF-7; assay: Tumor cell growth inhibition, SRB-assay, MCF-7; type: cell-based; settings: 50% growth inhibition, three days incubation in serum-containing medium
[2] = tested on: cells of the large-cell lung carcinoma of the tumor line LXFL-529L; assay: Tumor cell growth inhibition, SRB-assay, LXFL-529L; type: cell-based; settings: 50% growth inhibition, three days incubation in serum-containing medium

| Compound | IC50 [1] [µM] | IC50 [2] [µM] |
| --- | --- | --- |
| 3-[3′-[iminooxy-O-(2-D-glucopyranosylethyl)]-(2H′3H′)indol-2′-ylidene]-5-methyl-(2H3H)indol-2-one [Example 68] | 2.5 ± 0.8 | 17 ± 0.8 |
| CN(C)C(=O)Cc1ccc2c(c1)C(=C1Nc3ccccc3C1=O)C(=O)N2 [Example 10, N,N-dimethyl-2-[3-(3′-oxo-(2′H3′H)indol-2′-ylidene)-(2H3H)indol-2-one-5-yl]-acetamide] | 20 ± 1.3 | 16 ± 0.9 |
| CC(C)c1ccc2c(c1)/C(=C1/Nc3ccccc3C1=O)C(=O)N2 [Example 3, 5-isopropyl-indirubin] | 0.5 ± 0.2 | 4 ± 0.2 |
| NCC(=O)Nc1ccc2c(c1)C(=C1Nc3ccccc3C1=O)C(=O)N2 [Example 18, 2-amino-N-[3-(3′-oxo-(2′H3′H)indol-2′-ylidene)-(2H3H)indol-2-one-5-yl]-acetamide] | 3 ± 0.3 | 4 ± 0.4 |
| O=C1Nc2ccccc2C1=C1Nc2ccccc2C1=NOCCOCCO [Example 33, 3-{3′-[iminooxy-O-(2-(2-hydroxy-ethoxy)-ethyl)]-(2′H3′H)indol-2′-ylidene}-(2H3H)indol-2-one] | 2.5 ± 0.5 | 2 ± 0.4 |
| O=C(O)Cc1ccc2c(c1)C(=C1Nc3ccccc3C1=O)C(=O)N2 [Example 5, 5-(carboxymethyl)-indirubin] | 19.5 ± 1.4 | – |
| CN(C)C(=O)ON=C1C(=C2C(=O)Nc3ccccc32)Nc2ccccc21 [Example 41, 3-{3′-[iminooxy-O-((N,N)-dimethyl-carbamoyl)]-(2′H3′H)indol-2′-ylidene}-(2H3H)indol-2-one] | 7.5 ± 0.9 | 5 ± 0.6 |
| O=C1Nc2ccc(NCCO)cc2C1=C1Nc2ccccc2C1=O [Example 21, 5-(2-hydroxy-ethyl)-amino-indirubin] | 5 ± 0.6 | 3 ± 0.5 |
| CC(=O)Nc1ccc2c(c1)C(=C1Nc3ccccc3C1=O)C(=O)N2 [Example 16, 5-acetylamino-indirubin] | – | 10 ± 0.8 |
| COC(=O)CNC(=O)Cc1ccc2c(c1)C(=C1Nc3ccccc3C1=O)C(=O)N2 [Example 12, methyl-2-{2-[3-(3′-oxo-(2′H3′H)indol-2′-ylidene)-(2H3H)indol-2-one-5-yl]-acetylamino}-acetate] | 6.5 ± 1.2 | 8 ± 0.8 |
| O=C(O)CCCON=C1C(=C2C(=O)Nc3ccccc32)Nc2ccccc21 [Example 37, 4-{O-[2′-(2-oxo-(2H3H)indol-3-ylidene)-(2′H3′H)indol-3′-ylidene]-aminooxy}-butyric Acid (Sodium Salt)] | 14 ± 1.1 | 12 ± 1 |
| O=C1Nc2ccc(CP(=O)(O)O)cc2C1=C1Nc2ccccc2C1=O [Example 13, [3-(3′-oxo-(2′H3′H)indol-2′-ylidene)-(2H3H)indol-2-one-5-yl]-methyl-phosphonic Acid] | 6.5 ± 1 | 8.5 ± 0.8 |
| O=C1Nc2ccc(CC(=O)N3CCNCC3)cc2C1=C1Nc2ccccc2C1=O [Example 6, 5-[2-(piperazin-1-yl)-ethan-2-one-1-yl]-indirubin] | 8 ± 0.9 | 4 ± 0.5 |
| CC(C)(O)CON=C1C(=C2C(=O)Nc3ccccc32)Nc2ccccc21 [Example 34, 3-{3′-[iminooxy-O-((2-hydroxy-2-methyl)-propyl)]-(2′H3′H)indol-2′-ylidene}-(2H3H)indol-2-one] | 2 ± 0.3 | 2 ± 0.5 |
| O=C(O)CCC(=O)Nc1ccc2c(c1)C(=C1Nc3ccccc3C1=O)C(=O)N2 [Example 17, [3-(3′-oxo-(2′H3′H)indol-2′-ylidene)-(2H3H)indol-2-one-5-yl]-succinamic acid] | 14 ± 0.9 | 12.5 ± 0.7 |
| CNC(=O)Cc1ccc2c(c1)C(=C1Nc3ccccc3C1=O)C(=O)N2 [Example 9, N-methyl-2-[3-(3′-oxo-(2′H3′H)indol-2′-ylidene)-(2H3H)indol-2-one-5-yl]-acetamide] | 17 ± 1 | 11.5 ± 0.6 |
| 3-{3′-[iminooxy-O-(O^4-α-D-glucopyranosyl-2-D-glucopyranosylethyl)]-(2′H3′H)indol-2′-ylidene}-(2H3H)indol-2-one [Example 46] | 7 ± 0.9 | 24 ± 1.3 |
| O=C1Nc2ccc(CC(=O)N3CCOCC3)cc2C1=C1Nc2ccccc2C1=O [Example 7, 5-[2-(morpholin-4-yl)-ethan-2-one-1-yl]-indirubin] | 7.5 ± 0.6 | 5.5 ± 0.7 |
| 3-[3′-[iminooxy-O-(N-(1-deoxy-glucitol)-2-amino-ethyl)]-(2H′3H′)indol-2′-ylidene]-5-methyl-(2H3H)indol-2-one [Example 69] | 2.5 ± 0.9 | 3.5 ± 0.7 |
| CCCc1ccc2c(c1)C(=C1Nc3ccccc3C1=O)C(=O)N2 [Example 4, 5-n-propyl-indirubin] | 6.5 ± 0.5 | 7 ± 0.4 |
| CCOC(=O)ON=C1C(=C2C(=O)Nc3ccccc32)Nc2ccccc21 [Example 39, 3-[3′-(iminooxy-O-carbethoxy)-(2′H3′H)indol-2′-ylidene]-(2H3H)indol-2-one] | 10 ± 0.9 | 4.5 ± 0.7 |

More lines, now with the values ahead:

| IC50 [1] [µM] | IC50 [2] [µM] | Compound |
| --- | --- | --- |
| 5 ± 0.7 | 20.5 ± 1.4 | 3-{3′-[iminooxy-O-(2-L-arabinopyranosylethyl)]-(2′H3′H)indol-2′-ylidene}-(2H3H)indol-2-one [Example 49] |
| 9 ± 0.9 | 16 ± 1.1 | 3-{3′-[iminooxy-O-(2-(2-amino-2-deoxy-D-galactopyranosyl)-ethyl)]-(2′H3′H)indol-2′-ylidene}(2H3H)indol-2-one [Example 54] |
| 7 ± 0.7 | 15 ± 0.9 | 3-{3′-[iminooxy-O-(2-(2-amino-2-deoxy-D-glucopyranosyl)-ethyl)]-(2′H3′H)indol-2′-ylidene}-(2H3H)indol-2-one [Example 53] |
| 3 ± 0.8 | 3 ± 0.6 | O=C1Nc2ccccc2C1=C1Nc2ccccc2C1=NOCCNC[C@H](O)[C@@H](O)[C@H](O)[C@H](O)CO [Example 55, 3-{3′-[iminooxy-O-(N-(1-deoxy-glucitol)-2-amino-ethyl)]-(2′H3′H)indol-2′-ylidene}-(2H3H)indol-2-one] |
| 12.4 ± 0.7 | 8 ± 0.3 | 3-{3′-[iminooxy-O-((N,N)-bis(hydroxyethyl)-4-amino-butyl)]-(2H3H)indol-2′-ylidene}-(2H3H)indol-2-one [Example 61] |
| 2 ± 0.3 | 3 ± 0.5 | O=C1Nc2ccc(S(=O)(=O)N3CCNCC3)cc2C1=C1Nc2ccccc2C1=O [Example 22, indirubin-5-sulfonic acid-(piperazin-1-yl-amide)] |
| 13.6 ± 1.2 | 11.6 ± 0.8 | O=C1Nc2ccccc2C1=C1Nc2ccccc2C1=NOCCNCCO [Example 59, 3-{3′-[iminooxy-O-(N-hydroxyethyl-2-amino-ethyl)]-(2′H3′H)indol-2′-ylidene}-(2H3H)indol-2-one] |
| 1.5 ± 0.6 | 1 ± 0.5 | Cc1ccc2c(c1)C(=C1Nc3ccccc3C1=NOCCO)C(=O)N2 [Example 67, 3-[3′-[iminooxy-O-(2-hydroxy-ethyl)]-(2H′3H′)indol-2′-ylidene]-5-methyl-(2H3H)indol-2-one] |
| 9 ± 1.2 | 10 ± 0.6 | O=C1Nc2ccccc2C1=C1Nc2ccccc2C1=NOCCN1CCOCC1 [Example 64, 3-{3′-[iminooxy-O-(2-(morpholin-4-yl)-ethyl)]-(2′H3′)indol-2′-ylidene}-(2H3H)indol-2-one] |
| 7.5 ± 0.8 | – | CN1CCN(CCON=C2C(=C3C(=O)Nc4ccccc43)Nc3ccccc32)CC1 [Example 65, 3-{3′-[iminooxy-O-(2-(4-methyl-piperazin-1-yl)-ethyl)]-(2′H3′H)indol-2′-ylidene}-(2H3H)indol-2-one] |
| 8 ± 1.2 | 7 ± 0.6 | 3-{3′-[iminooxy-O-(2-(2-amino-ethyl)-amino-ethyl)]-(2′H3′H)indol-2′-ylidene}-(2H3H)indol-2-one [Example 66] |
| 14 ± 0.7 | 14 ± 0.8 | O=C(O)CCCCON=C1C(=C2C(=O)Nc3ccccc32)Nc2ccccc21 [Example 38, 5{O-[2′-(2-oxo-(2H3H)indol-3-ylidene)-(2′H3′H)indol-3′-ylidene]-aminooxy}-pentanoic Acid (Sodium Salt)] |
| 9.5 ± 0.8 | 8 ± 0.6 | O=C1Nc2ccccc2C1=C1Nc2ccccc2C1=NOCCN1CCNCC1 [Example 63, 3-{3′-[iminooxy-O-(2-(piperazin-1-yl)-ethyl)]-(2′H3′H)indol-2′-ylidene}-(2H3H)indol-2-one] |
| 10.5 ± 0.6 | 19 ± 0.9 | 3-{3′-[iminooxy-O-(3-D-glucopyranosylpropyl)]-(2′H3′H)indol-2′-ylidene}-(2H3H)indol-2-one [Example 45] |
| 9.5 ± 0.9 | 17 ± 1.2 | 3-{3′-[iminooxy-O-(2-D-galactopyranosylethyl)]-(2′H3′H)indol-2′-ylidene}-(2H3H)indol-2-one [Example 47] |
| 6.5 ± 1.1 | 5 ± 0.9 | CN(C)CCON=C1C(=C2C(=O)Nc3ccccc32)Nc2ccccc21 [Example 58, 3-{3′-[iminooxy-O-((N,N)-dimethyl-2-amino-ethyl)]-(2′H3′H)indol-2′-ylidene}-(2H3H)indol-2-one] |
| 4.5 ± 0.5 | 3 ± 0.4 | O=C1Nc2ccccc2C1=C1Nc2ccccc2C1=NOCCN(CCO)CCO [Example 60, 3-{3′-[iminooxy-O-((N,N)-bis(hydroxyethyl)-2-amino-ethyl)]-(2′H3′H)indol-2′-ylidene}-(2H3H)indol-2-one] |
| 16 ± 0.7 | – | O=C(O)CCON=C1C(=C2C(=O)Nc3ccccc32)Nc2ccccc21 [Example 36, 3-{O-[2′-(2-oxo-(2H3H)indol-3-ylidene)-(2′H3′H)indol-3′-ylidene]-aminooxy}-propionic Acid (Sodium Salt)] |
| 5 ± 0.5 | 4 ± 0.9 | CC(=O)Nc1ccc2c(c1)C(=C1Nc3ccccc3C1=NO)C(=O)N2 [Example 29, 5-acetylamino-indirubin-3′-monooxime] |
| 6 ± 0.5 | 2 ± 0.3 | NC(=O)CON=C1C(=C2C(=O)Nc3ccccc32)Nc2ccccc21 [Example 42, 2-{O-[2′-(2-oxo-(2H3H)indol-3-ylidene)-(2′H3′H)indol-3′-ylidene]-aminooxy}-acetamide] |
| – | 23 ± 1.4 | O=C1Nc2ccccc2C1=C1Nc2ccccc2C1=NOCCN[C@H]1C(O)O[C@H](CO)[C@H](O)[C@@H]1O (stereo partly shown) [Example 57, 3-{3′-[iminooxy-O-(N-(2-deoxy-galactose)-2-amino-ethyl)]-(2′H3′H)indol-2′-ylidene}-(2H3H)indol-2-one] |
